Test results from patent publication US20190105367A1, “ANTIMICROBIAL 4-OXOQUINOLIZINES” (Emergent Product Development Gaithersburg Inc., priority 2011, published 2019).
In brackets after ≈: the same amount, converted by molar mass. Read-outs that look alike come from different tables or passages of the source.

Tests used:
[1] = system: strains of A. baumannii and one strain of Acinetobacter sp.; test: MIC with sub-inhibitory concentrations (0.25x MIC) of polymyxin B, panel of Acinetobacter strains (Example 4); format: cell-based
A. baumannii ATCC 19606 = test: MIC without and with sub-inhibitory polymyxin B (Example 4); format: cell-based, Acinetobacter baumannii; details: for MIC without PB/MIC + PB: A. baumannii ATCC 19606; for MIC: Acinetobacter baumannii
A. baumannii J2 [2] = test: as above; format: cell-based, Acinetobacter baumannii; details: for MIC without PB/MIC + PB: A. baumannii J2
A. baumannii J2 [3] = test: Preliminary MBC without and with sub-inhibitory polymyxin B (Example 4); format: cell-based, Acinetobacter baumannii; details: Acinetobacter baumannii, J2, read-out: MBC +[…] PB, A. baumannii J2; +[…] polymyxin B; preliminary MBC; 1st experiment
[4] = system: Acinetobacter sp. (H064200250); test: MIC without and with sub-inhibitory polymyxin B (Example 4); format: cell-based
A. baumannii A329 [5] = test: as above; format: cell-based, Acinetobacter baumannii; details: +0.06 μg/ml PB, 2nd experiment
A. baumannii A329 [6] = test: Preliminary MBC without and with sub-inhibitory polymyxin B (Example 4); format: cell-based, Acinetobacter baumannii; details: Acinetobacter baumannii, A329, A. baumannii A329, +0.06 μg/ml PB, 2nd experiment, read-out: MBC
A. baumannii A387 [7] = test: MIC without and with sub-inhibitory polymyxin B (Example 4); format: cell-based, Acinetobacter baumannii; details: for MIC without PB/MIC + PB: A. baumannii A387; for MIC: Acinetobacter baumannii
A. baumannii A387 [8] = test: Preliminary MBC without and with sub-inhibitory polymyxin B (Example 4); format: cell-based, Acinetobacter baumannii; details: Acinetobacter baumannii
A. baumannii A390 [9] = test: MIC without and with sub-inhibitory polymyxin B (Example 4); format: cell-based, Acinetobacter baumannii; details: +0.06 μg/ml PB, 2nd experiment
A. baumannii A14 [10] = test: Preliminary MBC without and with sub-inhibitory polymyxin B (Example 4); format: cell-based, Acinetobacter baumannii; details: Acinetobacter baumannii, 2nd experiment, read-out: MBC
Procedure, shortened: (§1)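 Incubation 18-20 h, 37° C. MBC = lowest conc. with ~90% fewer colonies than positive control (single/no colonies).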

A. baumannii A390 [11] = test: as above; format: cell-based, Acinetobacter baumannii; details: Acinetobacter baumannii, A390, A. baumannii A390, +0.06 μg/ml PB, 2nd experiment, read-out: MBC
Procedure, shortened: as §1

A. baumannii A473 [12] = test: as above; format: cell-based, Acinetobacter baumannii; details: Acinetobacter baumannii, A473, A. baumannii A473, +0.06 μg/ml PB, 2nd experiment, read-out: MBC
Procedure, shortened: as §1

A. baumannii NCTC 13301 [13] = test: as above; format: cell-based, Acinetobacter baumannii; details: Acinetobacter baumannii
Procedure, shortened: as §1

A. baumannii A401 [14] = test: MIC without and with sub-inhibitory polymyxin B (Example 4); format: cell-based, Acinetobacter baumannii; details: for MIC: Acinetobacter baumannii
A. baumannii A401 [15] = test: Preliminary MBC without and with sub-inhibitory polymyxin B (Example 4); format: cell-based, Acinetobacter baumannii; details: Acinetobacter baumannii
A. baumannii A472 [16] = test: MIC without and with sub-inhibitory polymyxin B (Example 4); format: cell-based, Acinetobacter baumannii; details: 1st experiment
A. baumannii A472 [17] = test: Preliminary MBC without and with sub-inhibitory polymyxin B (Example 4); format: cell-based, Acinetobacter baumannii; details: Acinetobacter baumannii, A472, read-out: MBC +[…] PB, A. baumannii A472; +[…] polymyxin B; preliminary MBC; 1st experiment
A. baumannii A473 [18] = test: MIC without and with sub-inhibitory polymyxin B (Example 4); format: cell-based, Acinetobacter baumannii; details: +0.06 μg/ml PB, 2nd experiment
A. baumannii A489 = test: as above; format: cell-based, Acinetobacter baumannii; details: for MIC without PB/MIC + PB: A. baumannii A489; for MIC: Acinetobacter baumannii
A. baumannii NCTC 13301 [19] = test: as above; format: cell-based, Acinetobacter baumannii
A. baumannii NCTC 13301 [20] = test: as above; format: cell-based, Acinetobacter baumannii; details: A. baumannii NCTC 13301; +[…] PB; 2nd experiment
A. baumannii A14 [21] = test: as above; format: cell-based, Acinetobacter baumannii; details: 1st experiment
A. baumannii A14 [22] = test: as above; format: cell-based, Acinetobacter baumannii; details: 2nd experiment; for MIC: Acinetobacter baumannii, A14, A. baumannii A14, read-out: MIC
[23] = ratio, PB 0.06 μg/ml, 1st experiment

## Cc1c(-c2ccc(N)c(F)c2)ccn2c(=O)c(C(=O)O)cc(C3CC3)c12 [Compound 1, 8-(3-fluoro-4-amino-phenyl)-1-cyclopropyl-9-methyl-4-oxo-quinolizine-3-carboxylic acid]
[1]; 1st experiment, […] polymyxin B, ATCC 19606, A329, A390 and A473 not taken
  MIC range with PB (0.25x MIC) Oct. 1, 2008 n = 8: ≤0.03 to 0.06 µg/mL
[1]; 2nd experiment, 0.06 μg/ml polymyxin B, all strains except the ATCC strain
  MIC range with PB (0.25x MIC) Oct. 14, 2008 n = 11: ≤0.03 to 2 µg/mL
A. baumannii ATCC 19606; +0.06 μg/ml PB, 2nd experiment
  MIC without PB/MIC + PB: ≥8
A. baumannii ATCC 19606; [23]
  MIC without PB/MIC + PB: ≥8
A. baumannii ATCC 19606; ATCC19606, A. baumannii ATCC 19606, +0.06 μg/ml PB, 2nd experiment, read-out: MIC
  MIC: ≤ 0.03 µg/mL
A. baumannii ATCC 19606; ATCC19606, read-out: MIC +0.06 μg/ml PB, A. baumannii ATCC 19606, +0.06 μg/ml polymyxin B, 1st experiment
  MIC: ≤ 0.03 µg/mL
A. baumannii J2 [2]; +[…] PB, 2nd experiment
  MIC without PB/MIC + PB: ≥512
A. baumannii J2 [2]; ratio, PB […], 1st experiment
  MIC without PB/MIC + PB: ≥256
A. baumannii J2 [2]; Acinetobacter baumannii, J2, read-out: MIC +[…] PB, A. baumannii J2, +[…] polymyxin B, 1st experiment
  MIC: ≤ 0.03 µg/mL
A. baumannii J2 [3]
  MBC: ≤ 0.03 µg/mL
[4]; Acinetobacter spp. H064200250 (OXA51), +[…] PB, 2nd experiment
  MIC without PB/MIC + PB: ≥512
[4]; Acinetobacter spp. H064200250, ratio, PB […], 1st experiment
  MIC without PB/MIC + PB: ≥256
[4]; Acinetobacter, read-out: MIC +[…] PB, Acinetobacter spp. H064200250, +[…] polymyxin B, 1st experiment
  MIC: ≤ 0.03 µg/mL
A. baumannii A329 [5]; A. baumannii A329
  MIC without PB/MIC + PB: 8
A. baumannii A329 [5]; Acinetobacter baumannii, A329, A. baumannii A329, read-out: MIC
  MIC: 2 µg/mL (≈ 5.68 µM)
A. baumannii A329 [6]
  MBC: 2 µg/mL (≈ 5.68 µM)
A. baumannii A387 [7]; +0.06 μg/ml PB, 2nd experiment
  MIC without PB/MIC + PB: ≥128
A. baumannii A387 [7]; [23]
  MIC without PB/MIC + PB: ≥32
A. baumannii A387 [7]; A387, A. baumannii A387, +0.06 μg/ml PB, 2nd experiment, read-out: MIC
  MIC: ≤ 0.03 µg/mL
A. baumannii A387 [7]; A387, read-out: MIC +0.06 μg/ml PB, A. baumannii A387, +0.06 μg/ml polymyxin B, 1st experiment
  MIC: ≤ 0.03 µg/mL
A. baumannii A387 [8]; A387, A. baumannii A387, +0.06 μg/ml PB, 2nd experiment, read-out: MBC
  MBC: ≤ 0.03 µg/mL
A. baumannii A387 [8]; A387, read-out: MBC +0.06 μg/ml PB, A. baumannii A387, +0.06 μg/ml polymyxin B, 1st experiment
  MBC: ≤ 0.03 µg/mL
A. baumannii A390 [9]; A. baumannii A390
  MIC without PB/MIC + PB: ≥512
A. baumannii A390 [9]; Acinetobacter baumannii, A390, A. baumannii A390, read-out: MIC
  MIC: ≤ 0.03 µg/mL
A. baumannii A14 [10]; A14, A. baumannii A14, +0.06 μg/ml PB
  MBC: 0.06 µg/mL (≈ 0.17 µM)
A. baumannii A14 [10]; A14, A. baumannii A14, without PB
  MBC: 32 µg/mL (≈ 90.8 µM)
A. baumannii A390 [11]
  MBC: ≤ 0.03 µg/mL
A. baumannii A473 [12]
  MBC: 1 µg/mL (≈ 2.84 µM)
A. baumannii NCTC 13301 [13]; NCTC13301
  MBC: ≤ 0.03 µg/mL
A. baumannii NCTC 13301 [13]; NCTC13301, read-out: MBC +[…] PB
  MBC: 0.06 µg/mL (≈ 0.17 µM)
A. baumannii A401 [14]; A baumannii A 401, ratio, PB 0.06 μg/ml, 1st experiment
  MIC without PB/MIC + PB: ≥128
A. baumannii A401 [14]; A401, A baumannii A 401, +0.06 μg/ml PB, 2nd experiment, read-out: MIC
  MIC: ≤ 0.03 µg/mL
A. baumannii A401 [14]; A401, read-out: MIC +0.06 μg/ml PB, A baumannii A 401, +0.06 μg/ml polymyxin B, 1st experiment
  MIC: ≤ 0.03 µg/mL
A. baumannii A401 [15]; A401, A baumannii A 401, +0.06 μg/ml PB, 2nd experiment, read-out: MBC
  MBC: ≤ 0.03 µg/mL
A. baumannii A401 [15]; A401, read-out: MBC +0.06 μg/ml PB, A baumannii A 401, +0.06 μg/ml polymyxin B, 1st experiment
  MBC: ≤ 0.03 µg/mL
A. baumannii A472 [16]; A. baumannii A472, ratio, PB […]
  MIC without PB/MIC + PB: ≥256
A. baumannii A472 [16]; Acinetobacter baumannii, A472, read-out: MIC +[…] PB, A. baumannii A472, +[…] polymyxin B
  MIC: ≤ 0.03 µg/mL
A. baumannii A472 [17]
  MBC: ≤ 0.03 µg/mL
A. baumannii A473 [18]; A. baumannii A473
  MIC without PB/MIC + PB: 8
A. baumannii A473 [18]; Acinetobacter baumannii, A473, A. baumannii A473, read-out: MIC
  MIC: 1 µg/mL (≈ 2.84 µM)
A. baumannii A489; +[…] PB, 2nd experiment
  MIC without PB/MIC + PB: ≥512
A. baumannii A489; ratio, PB […], 1st experiment
  MIC without PB/MIC + PB: ≥128
A. baumannii A489; A489, A. baumannii A489, +[…] PB, 2nd experiment, read-out: MIC
  MIC: ≤ 0.03 µg/mL
A. baumannii A489; A489, read-out: MIC +[…] PB, A. baumannii A489, +[…] polymyxin B, 1st experiment
  MIC: ≤ 0.03 µg/mL
A. baumannii NCTC 13301 [19]; A. baumannii NCTC 13301, ratio, PB […], 1st experiment
  MIC without PB/MIC + PB: ≥1024
A. baumannii NCTC 13301 [19]; Acinetobacter baumannii, NCTC13301, read-out: MIC +[…] PB
  MIC: ≤ 0.03 µg/mL
A. baumannii NCTC 13301 [20]
  MIC without PB/MIC + PB: ≥1024
A. baumannii A14 [21]; +0.06 μg/ml polymyxin B
  MIC +0.06 μg/ml PB: 0.06 µg/mL
A. baumannii A14 [21]; Acinetobacter baumannii, 24 h, without polymyxin B, read-out: MIC without PB
  MIC: 32 µg/mL (≈ 90.8 µM)
A. baumannii A14 [21]; ratio, PB 0.06 μg/ml
  MIC without PB/MIC + PB: 512
A. baumannii A14 [22]; A. baumannii A14, +0.06 μg/ml PB
  MIC without PB/MIC + PB: 512
A. baumannii A14 [22]; +0.06 μg/ml PB
  MIC: 0.06 µg/mL (≈ 0.17 µM)
A. baumannii A14 [22]; without PB
  MIC: 32 µg/mL (≈ 90.8 µM)
